# Literature values, collected in patent US20060083786A1 (Glenmark Pharmaceuticals Limited, priority 2004, published 2006).
# Details: in vivo
smiles,measurement,value
O=C(O)COCCN1CCN([C@H](c2ccccc2)c2ccc(Cl)cc2)CC1 [Levocetirizine],side effects on the central nervous system,free from side effects
